This is an account of results in ChEMBL document CHEMBL1146565, “Intercedensides A-C, three new cytotoxic triterpene glycosides from the sea cucumber Mensamaria intercedens Lampert” (2003).

The assay relates to Pyricularia oryzae. The assay is described as follows: Antimicrobial activity against Pyricularia oryzae P-2b assessed as drug concentration causing minimum morphological deformation. The class given is functional.

In the case of `O=c1[nH]cc(F)c(=O)[nH]1` [FLUOROURACIL], the Activity result is “<=5 ug ml-1”.
